Measurements as given in patent publication US7915268B2, “8-substituted 2-(benzimidazolyl)purine derivatives for immunosuppression” (Wyeth LLC, priority 2006, dated 2011).

What follows are compounds tested against T1, Jak3 (Homo sapiens, UniProt P52333) (assay: Jak3 Kinase Assay (HTRF, GST-Jak3 catalytic domain)). Settings: 1 μM ATP, 60-min incubation, read-out: Jak 3 (Converted).
T1 construct: catalytic domain of Jak3 (508aa to 1124aa); made in house; host or cells: Sf9 insect cells (baculovirus, pFastBac 1)
T1 sequence (P52333 508-1124): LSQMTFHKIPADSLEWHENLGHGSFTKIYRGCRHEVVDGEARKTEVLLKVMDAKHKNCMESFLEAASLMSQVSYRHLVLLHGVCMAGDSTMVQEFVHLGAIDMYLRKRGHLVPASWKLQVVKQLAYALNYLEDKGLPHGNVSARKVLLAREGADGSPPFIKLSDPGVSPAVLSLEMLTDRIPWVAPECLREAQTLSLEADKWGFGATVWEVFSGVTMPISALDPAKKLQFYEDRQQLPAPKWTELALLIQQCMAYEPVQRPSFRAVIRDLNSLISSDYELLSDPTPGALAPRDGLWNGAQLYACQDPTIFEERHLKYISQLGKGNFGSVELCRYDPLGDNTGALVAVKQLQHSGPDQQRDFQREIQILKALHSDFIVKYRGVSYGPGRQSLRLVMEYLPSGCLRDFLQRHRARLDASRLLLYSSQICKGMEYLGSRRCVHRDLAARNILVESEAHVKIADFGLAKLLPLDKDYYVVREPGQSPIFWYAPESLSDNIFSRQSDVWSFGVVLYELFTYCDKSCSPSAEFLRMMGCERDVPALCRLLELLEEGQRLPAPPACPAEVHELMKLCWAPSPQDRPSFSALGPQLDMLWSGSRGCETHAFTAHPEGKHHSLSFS
Format: biochemical
Description: Human Jak3 cDNA was amplified by PCR. A fragment encoding the catalytic domain of Jak3 (508aa to 1124aa) was ligated with GST at 5′ end. This fused GST-Jak3 DNA fragment was cloned into the EcoRI site of the donor plasmid pFastBac 1 (Life Technologies #10359-016). The transformation, transposition, and transfection of insect cells (Sf9) were performed according to the manufacture's instructions. The cell lysate containing recombinant GST-Jak3 was used in the kinase assay. Anti-GST antibody (10 μg/ml, Sigma #G1417) was coated onto a 384-well plate at 4° C. overnight. Cell lysate containing GST-Jak3 (1:100 dilution) was added to the anti-GST coated plates, and GST-Jak3 was captured by immobilized anti-GST antibody. Testing compounds and substrate mix (50 mM HEPES, pH 7, 0.5 mM Na3VO4, 25 mM MgCl2, 1 mM DTT, 0.005% BSA, 1 μM ATP, and 4.5 μg/ml biotinyl poly-Glu, Ala, Tyr) were added to the plate to initiate the reaction. After a 60-min incubation, the reaction was stopped by 4 mM EDTA, and phosphorylation of biotinyl poly-Glu, Ala, Tyr was detected using 17 μg/ml Cy5-streptavidin (Amersham, #PA92005) and 2.7 μg/ml Europium-conjugated anti-phosphotyrosine antibody (PerkinElmer #AD0069) using homogeneous time-resolved fluorescence (HTRF) technology.

First: c1ccc(-c2nc3cnc(-n4cnc5ccccc54)nc3n2C2CCOCC2)cc1 [Example 91]
Second: Cc1nc2cnc(-n3cnc4ccccc43)nc2n1C1CCOCC1 [Example 83]
The IC50 of the first is higher: 100 to 1000 nM for the first, less than 100 nM for the second. The second is the more potent here.

First: Fc1ccc2ncn(-c3ncc4nc(-c5ccncn5)n(C5CCOCC5)c4n3)c2c1 [Example 69]
Second: Fc1ccc2ncn(-c3ncc4nc(-c5ccccn5)n(C5CCOCC5)c4n3)c2c1 [Example 66]
The IC50 of the first is lower: less than 100 nM for the first, 100 to 1000 nM for the second. The first is the more potent here.

`Cc1nc2cnc(-n3cnc4ccc(Cl)cc43)nc2n1C1CCOCC1` [Example 74] and `Cc1nc2cnc(-n3cnc4ccc(C#N)cc43)nc2n1C1CCOCC1` [Example 25, 3-(8-Methyl-9-(tetrahydro-2H-pyran-4-yl)-9H-purin-2-yl)-3H-benzo[d]imidazole-5-carbonitrile] cannot be ordered by IC50: less than 100 nM for the first, less than 100 nM for the second.

First: Fc1ccc2ncn(-c3ncc4nc(-c5nccs5)n(C5CCOCC5)c4n3)c2c1 [Example 48]
Second: Fc1ccc2ncn(-c3ncc4nc(-c5ccc[nH]5)n(C5CCOCC5)c4n3)c2c1 [Example 62]
The IC50 of the first is higher: 100 to 1000 nM for the first, less than 100 nM for the second.

Compared with `CC(C)Sc1nccc(-c2nc3cnc(-n4cnc5ccc(C#N)cc54)nc3n2[C@@H]2CCOc3c(F)ccc(F)c32)n1` [Example 20], `N#Cc1ccc2ncn(-c3ncc4nc(-c5cccnc5)n([C@@H]5CCOc6c(F)cccc65)c4n3)c2c1` [Example 5] is lower in IC50: 100 to 1000 nM for the first, less than 100 nM for the second. The second is the more potent here.

`Cc1nc2cnc(-n3cnc4ccc(OC(F)(F)F)cc43)nc2n1C1CCOCC1` [Example 76, 8-Methyl-9-(tetrahydro-2H-pyran-4-yl)-2-(6-(trifluoromethoxy)-1H-benzo[d]imidazol-1-yl)-9H-purine] and `CC(C)(C)c1nc2cnc(-n3cnc4ccc(F)cc43)nc2n1C1CCOCC1` [Example 34] cannot be ordered by IC50: less than 100 nM for the first, less than 100 nM for the second.

`CCNc1nc2cnc(-n3cnc4ccc(C#N)cc43)nc2n1C1CCOCC1` [Example 96, 3-(8-(ethylamino)-9-(tetrahydro-2H-pyran-4-yl)-9H-purin-2-yl)-3H-benzo[d]imidazole-5-carbonitrile] and `N#Cc1ccc2ncn(-c3ncc4nc(Cl)n(C5CCOCC5)c4n3)c2c1` [Example 101] cannot be ordered by IC50: less than 100 nM for the first, less than 100 nM for the second.

First: Cc1nc2cnc(-n3cnc4ccccc43)nc2n1C1COCc2c(F)cccc21 (stereo not drawn) [Example 80]
Second: O[C@@H]1CC[C@@H](n2c(-c3cncnc3)nc3cnc(-n4cnc5ccc(F)cc54)nc32)c2ccccc21 [Example 112, (1R,4R)-4-(2-(6-Fluoro-1H-benzo[d]imidazol-1-yl)-8-(pyrimidin-5-yl)-9H-purin-9-yl)-1,2,3,4-tetrahydronaphthalen-1-ol]
The IC50 of the first is higher: 100 to 1000 nM for the first, less than 100 nM for the second. The second is the more potent here.

First: O=c1ccc(-c2nc3cnc(-n4cnc5ccc(F)cc54)nc3n2C2CCOCC2)c[nH]1 [Example 61]
Second: Fc1ccc2ncn(-c3ncc4nc(-c5ccc(Br)nc5)n(C5CCOCC5)c4n3)c2c1 [Example 36]
The IC50 of the first is higher: 100 to 1000 nM for the first, less than 100 nM for the second. The second is the more potent here.

`N#Cc1ccc2ncn(-c3ncc4nc(Nc5ccc(S(N)(=O)=O)cc5)n(C5CCOCC5)c4n3)c2c1` [Example 105, 4-(2-(6-cyano-1H-benzo[d]imidazol-1-yl)-9-(tetrahydro-2H-pyran-4-yl)-9H-purin-8-ylamino)benzenesulfonamide] and `N#Cc1ccc2ncn(-c3ncc4nc(Nc5cccnc5)n(C5CCOCC5)c4n3)c2c1` [Example 107] cannot be ordered by IC50: less than 100 nM for the first, less than 100 nM for the second.

`Cc1ccc([C@@H](C)n2c(C)nc3cnc(-n4cnc5ccc(C#N)cc54)nc32)o1` [Example 99] and `CO[C@H]1CC[C@H](n2c(C)nc3cnc(-n4cnc5ccc(C#N)cc54)nc32)CC1` [Example 23] fall in the same range of IC50: 100 to 1000 nM for the first, 100 to 1000 nM for the second.

`Fc1ccc2ncn(-c3ncc4nc(-c5ccc(C(F)(F)F)nc5)n(C5CCOCC5)c4n3)c2c1` [Example 51] and `COc1ccc(-c2nc3cnc(-n4cnc5ccc(F)cc54)nc3n2C2CCOCC2)cn1` [Example 63] cannot be ordered by IC50: less than 100 nM for the first, less than 100 nM for the second.

Compared with `Fc1ccc2ncn(C3N=c4c(nc(-c5ccnc6ccccc56)n4C4CCOCC4)=CN3)c2c1` (stereo not drawn) [Example 56], `Fc1ccc2ncn(-c3ncc4nc(Cc5ccccc5)n(C5CCOCC5)c4n3)c2c1` [Example 90, 8-Benzyl-2-(6-fluoro-1H-benzo[d]imidazol-1-yl)-9-(tetrahydro-2H-pyran-4-yl)-9H-purine] is lower in IC50: greater than 1000 nM for the first, 100 to 1000 nM for the second.

Going from `COCCCn1c(C)nc2cnc(-n3cnc4ccccc43)nc21` [Example 84] to `Cc1nc2cnc(-n3cnc4ccc(Cl)cc43)nc2n1[C@H](C)C(=O)NCC(F)(F)F` [Example 92, (2R)-2-(2-(6-chloro-1H-benzo[d]imidazol-1-yl)-8-methyl-9H-purin-9-yl)-N-(2,2,2-trifluoroethyl)propanamide], the IC50 falls from greater than 1000 nM to less than 100 nM.

First: COc1cccc(-c2nc3cnc(-n4cnc5ccc(C#N)cc54)nc3n2C2CCOCC2)c1 [Example 4]
Second: COc1cccc(Nc2nc3cnc(-n4cnc5ccc(C#N)cc54)nc3n2C2CCOCC2)c1 [Example 108]
The IC50 of the first is higher: 100 to 1000 nM for the first, less than 100 nM for the second.

Compared with `CC(=O)Nc1ccc(-c2nc3cnc(-n4cnc5ccc(C#N)cc54)nc3n2C2CCOCC2)cc1` [Example 7], `COc1ccccc1-c1nc2cnc(-n3cnc4ccc(C#N)cc43)nc2n1C1CCOCC1` [Example 18] is higher in IC50: less than 100 nM for the first, 100 to 1000 nM for the second.

`Nc1nccc(-c2nc3cnc(-n4cnc5ccc(Cl)cc54)nc3n2C2CCOCC2)n1` [Example 43] and `Nc1ncc(-c2nc3cnc(-n4cnc5ccc(F)cc54)nc3n2C2CCOCC2)cn1` [Example 59] cannot be ordered by IC50: less than 100 nM for the first, less than 100 nM for the second.

First: N#Cc1ccc2ncn(-c3ncc4nc(Nc5cccc(C(F)(F)F)c5)n([C@@H]5CCOc6ccccc65)c4n3)c2c1 [Example 106]
Second: N#Cc1ccc2ncn(-c3ncc4nc(Nc5cccnc5)n([C@@H]5CCOc6ccccc65)c4n3)c2c1 [Example 104]
The IC50 of the first is higher: 100 to 1000 nM for the first, less than 100 nM for the second.

First: Fc1ccc2ncn(-c3ncc4nc(-c5ccc(Br)cn5)n(C5CCOCC5)c4n3)c2c1 [Example 64]
Second: O=C(O)c1cccc(-c2nc3cnc(-n4cnc5ccc(F)cc54)nc3n2C2CCOCC2)c1 [Example 45]
The IC50 of the first is higher: 100 to 1000 nM for the first, less than 100 nM for the second. The second is the more potent here.

`N#Cc1ccc2ncn(-c3ncc4nc(-c5cnc(N)nc5)n(C5CCOCC5)c4n3)c2c1` [Example 9] and `CN(C)c1ncc(-c2nc3cnc(-n4cnc5ccc(C#N)cc54)nc3n2C2CCOCC2)cn1` [Example 17] cannot be ordered by IC50: less than 100 nM for the first, less than 100 nM for the second.

First: COC(=O)c1cccc(-c2nc3cnc(-n4cnc5ccc(F)cc54)nc3n2C2CCOCC2)c1 [Example 31]
Second: N#Cc1cccc(Nc2nc3cnc(-n4cnc5ccc(Cl)cc54)nc3n2C2CCOCC2)c1 [Example 110]
The IC50 of the first is lower: 100 to 1000 nM for the first, greater than 1000 nM for the second. The first is the more potent here.

Compared with `CO[C@H]1CC[C@H](n2c(-c3cncnc3)nc3cnc(-n4cnc5ccc(Cl)cc54)nc32)CC1` [Example 29], `Fc1ccc2ncn(-c3ncc4nc(-c5cncnc5)n([C@@H]5CCOc6c(F)cccc65)c4n3)c2c1` [Example 55] is lower in IC50: 100 to 1000 nM for the first, less than 100 nM for the second. The second is the more potent here.

`N#Cc1ccc2ncn(-c3ncc4nc(-c5cncnc5)n([C@@H]5CCOc6ccc(F)cc65)c4n3)c2c1` [Example 2] and `N#Cc1ccc2ncn(-c3ncc4nc(-c5cncnc5)n([C@@H]5CCOc6c(F)cc(F)cc65)c4n3)c2c1` [Example 15] cannot be ordered by IC50: less than 100 nM for the first, less than 100 nM for the second.

`Fc1ccc2ncn(-c3ncc4nc(-c5ccc(F)nc5)n([C@@H]5CCOc6c(F)cccc65)c4n3)c2c1` [Example 103, 2-(6-fluoro-1H-benzo[d]imidazol-1-yl)-9-((R)-8-fluorochroman-4-yl)-8-(6-fluoropyridin-3-yl)-9H-purine] and `N#Cc1ccc2ncn(-c3ncc4nc(NC5CCCC5)n([C@@H]5CCOc6ccccc65)c4n3)c2c1` [Example 98] cannot be ordered by IC50: less than 100 nM for the first, less than 100 nM for the second.
